The values below come from PMC7261474 (Journal of medicinal chemistry, 2020).

“And” between values parts separate entries of the source, which are not always exact repeats. Equal entries are not always repeated. Where two headings read alike, the source gives them in different places. Where a SMILES comes first, the peptide text is derived from it. [ ]: non-standard residue; d: D form. The star is where a group is joined. hPhe = N[CH](CCc1ccccc1)C(=O)O; 4Pal = N[CH](Cc1ccncc1)C(=O)O; AMC = Cc1cc(=O)oc2cc(N*)ccc12; Cbz = O=C(OCc1ccccc1)*

Data set [1] relates to T. cruzi strain Ca-I/72 in C2C12 mouse cardiomyoblasts. The following applies: ref [55]; cited from earlier work.
Data set [2] deals with T1, cruzain (Trypanosoma cruzi, UniProt P25779). Nature of the data set: Cruzain-catalysed hydrolysis of fluorogenic dipeptide-AMC substrates. The class given is biochemical. The note with it: for kcat rel: relative to S1 Cbz-Phe-Arg-AMC, S6 and S12 from 2% DMSO data; for Km / kcat: pH 7.5, 25 °C, 10% DMSO (v/v).
T1 sequence (P25779 123-467): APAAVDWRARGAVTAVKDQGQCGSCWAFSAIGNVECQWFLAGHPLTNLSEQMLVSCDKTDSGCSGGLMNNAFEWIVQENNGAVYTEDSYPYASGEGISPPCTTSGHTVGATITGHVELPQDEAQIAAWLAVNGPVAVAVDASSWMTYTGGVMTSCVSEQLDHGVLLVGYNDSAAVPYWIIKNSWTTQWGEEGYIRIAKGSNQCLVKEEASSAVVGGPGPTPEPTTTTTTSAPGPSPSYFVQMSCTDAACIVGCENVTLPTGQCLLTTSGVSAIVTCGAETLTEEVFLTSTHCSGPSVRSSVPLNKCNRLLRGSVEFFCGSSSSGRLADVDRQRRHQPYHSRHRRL
The target of data set [3] is T1, cruzain. The note with it: 2% DMSO (v/v); ref [40]; cited from earlier work.
The subject of data set [4] is Primary human dermal fibroblast (HDF) cells. Nature of the data set: Human cell toxicity. The format is cell-based. The note with it: CC50 in human dermal fibroblasts / EC50 in infected cardiomyoblasts.
Data set [5] in a line: Covalent adduct formation with glutathione. The format is physicochemical. The note with it: for rate of formation of GSH adduct: 2:1 molar ratio GSH/inhibitor; for Keq of GSH adduct (apparent equilibrium): 2:1 molar ratio, equilibrium in 90 min; for reaction with GSH (adduct formation): 90 min incubation, 2:1 or 10:1 molar ratio GSH/inhibitor.
Data set [6] relates to T. cruzi (epimastigote forms, strain Y, ATCC 50832GFP). The experiment in a line: Growth inhibition of T. cruzi epimastigotes in axenic culture. The format is cell-based, Trypanosoma cruzi. The note with it: 5 days.
Data set [7] concerns the target T1, cruzain. Nature of the data set: Cruzain inhibition/inactivation, time courses with Cbz-Phe-Arg-AMC.
Data set [8] has as its target human cathepsin S (Homo sapiens, UniProt P25774). Nature of the data set: Human cathepsin S assay with Cbz-Phe-Arg-AMC. The format is biochemical. The following applies: pH 5.5, 25 °C, 10% DMSO.
The target in data set [9] is human cathepsin L (Homo sapiens, UniProt P07711). Nature of the data set: Human cathepsin L assay with Cbz-Phe-Arg-AMC. The class given is biochemical. The note with it: pH 5.5, 25 °C, 10% DMSO.
Sequence of human cathepsin L (P07711 114-333): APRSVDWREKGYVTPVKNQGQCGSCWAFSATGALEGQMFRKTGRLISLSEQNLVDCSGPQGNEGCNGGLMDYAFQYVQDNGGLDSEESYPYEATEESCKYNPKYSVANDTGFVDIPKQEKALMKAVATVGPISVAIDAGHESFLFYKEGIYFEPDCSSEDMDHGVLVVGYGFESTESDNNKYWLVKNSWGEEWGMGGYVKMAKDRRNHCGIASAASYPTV
In data set [10] the target is human cathepsin B (Homo sapiens, UniProt P07858). Nature of the data set: Human cathepsin B assay with Cbz-Phe-Arg-AMC. The class given is biochemical. The following applies: pH 5.5, 25 °C, 10% DMSO.

Sequence of human cathepsin S (P25774 115-331): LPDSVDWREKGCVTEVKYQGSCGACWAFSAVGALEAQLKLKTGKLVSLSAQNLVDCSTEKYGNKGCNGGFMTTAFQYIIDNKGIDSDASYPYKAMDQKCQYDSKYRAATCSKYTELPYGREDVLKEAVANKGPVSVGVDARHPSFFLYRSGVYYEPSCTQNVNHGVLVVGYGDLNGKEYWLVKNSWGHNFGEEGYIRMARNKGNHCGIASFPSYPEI

On to `O=C(Cn1ccnc1[N+](=O)[O-])NCc1ccccc1` [benznidazole], for which the “LD50 (antichagasic potency)” value in [1] was 1500 nM.
Take `Cc1cc(=O)oc2cc(NC(=O)[C@H](CCCN=C(N)N)NC(=O)[C@H](CCCN=C(N)N)NC(=O)OCc3ccccc3)ccc12` [S6, Cbz-Arg-Arg-AMC] (Cbz-Arg-Arg-{AMC}): the kcat rel in data set [2] worked out at 0.75. For the same compound, in data set [3], the Michaelis-Menten constant (Km) (usually the concentration of substrate that gives half-maximal velocity) is 3.7 ± 0.4 µM; the kcat (in general, the number of substrate molecules converted per active site and unit of time at saturation) was 7.2 ± 0.1 s⁻¹.
As to `C[n+]1ccccc1/C=C/[C@H](Cc1ccccc1)NC(=O)[C@H](Cc1ccccc1)NC(=O)OCc1ccccc1.[I-]` [Compound 12, 2-((S,E)-3-((S)-2-(((Benzyloxy)carbonyl)amino)-3-phenylpropanamido)-4-phenylbut-1-en-1-yl)-1-methylpyridin-1-ium Iodide], the “selectivity index CC50/EC50” value in [4] was more than 10. In data set [5] (pH 8.0), the “rate of formation of GSH adduct” value worked out at 37 M⁻¹ s⁻¹ and the “Keq of GSH adduct (apparent equilibrium)” value is 7400 M⁻¹. In data set [5] (20 min, 10:1 molar ratio of GSH to compound), the “conversion to GSH adduct” value was determined as 97%.
Consider `Cc1cc(=O)oc2cc(NC(=O)C(C)NC(=O)C(Cc3ccccc3)NC(=O)OCc3ccccc3)ccc12` (stereo not drawn) [S12, Cbz-Phe-Ala-AMC], for which, in data set [2], the kcat rel is on record as 0.09. Besides, in data set [3], the Km is 38 ± 2 µM and the turnover number (kcat) was 0.89 ± 0.06 s⁻¹.
Take `Cc1cc(=O)oc2cc(NC(=O)C(CCc3ccccc3)NC(=O)C(CCCN=C(N)N)NC(=O)OCc3ccccc3)ccc12` (stereo not drawn) [S10, Cbz-Arg-hPhe-AMC]: in data set [2], the Km stood at 6.8 ± 0.4 µM; the catalytic constant (kcat) was 4.9 s⁻¹ and 4.9 ± 0.1 s⁻¹; the kcat rel was found to be 0.51.
Take `CN1CCN(C(=O)N[C@@H](Cc2ccccc2)C(=O)N[C@H](/C=C/S(=O)(=O)c2ccccc2)CCc2ccccc2)CC1` [K11777, reference compound]: the “rate of glutathione adduct formation k” value in [5] (0.5 mM compound, 1 mM GSH, pH 8.0) was 0.00028 s⁻¹.
As to `O=C(N[C@@H](Cc1ccccc1)C(=O)N[C@H](/C=C/c1ncco1)Cc1ccccc1)OCc1ccccc1` [Compound 24, Benzyl ((S)-1-(((S,E)-4-(Oxazol-2-yl)-1-phenylbut-3-en-2-yl)-amino)-1-oxo-3-phenylpropan-2-yl)carbamate], in data set [6], the “T. cruzi axenic culture EC50” value is given as “poorly effective”.
With `Cc1cc(=O)oc2cc(NC(=O)C(CCc3ccccc3)NC(=O)C(Cc3ccccc3)NC(=O)N3CCN(C)CC3)ccc12` (stereo not drawn) [S7, NMePip-Phe-hPhe-AMC], in data set [2], the Michaelis-Menten constant (Km) came out at 3.1 ± 0.3 µM, the catalytic constant (kcat) was found to be 4.0 ± 0.1 s⁻¹ and the kcat rel came out at 0.42.
Regarding `C[n+]1ccccc1/C=C/[C@H](CCc1ccccc1)NC(=O)[C@H](Cc1ccccc1)NC(=O)OCc1ccccc1` [Compound 15, 2-((S,E)-3-((S)-2-(((Benzyloxy)carbonyl)amino)-3-phenylpropanamido)-5-phenylpent-1-en-1-yl)-1-methylpyridin-1-ium], the Ki in data set [7] came out at 600 ± 200 nM. In data set [7] (pH 7.5, global fitting to eq 6), the “k3 (eq 6)” value was 0.0012 ± 0.0004 s⁻¹ and the “k4 (eq 6)” value was 0.00019 ± 0.00005 s⁻¹. Further, the “selectivity index CC50/EC50” value in [4] is on record as more than 20. Further, in data set [5] (pH 8.0), the “rate of formation of GSH adduct” value is 54 M⁻¹ s⁻¹ and the “Keq of GSH adduct (apparent equilibrium)” value was determined as 2400 M⁻¹.
For `O=C(N[C@@H](Cc1ccccc1)C(=O)N[C@H](/C=C/c1cc(C(F)(F)F)ccn1)CCc1ccccc1)OCc1ccccc1` [Compound 17, Benzyl ((S)-1-Oxo-3-phenyl-1-(((S,E)-5-phenyl-1-(4-(trifluoromethyl)pyridin-2-yl)pent-1-en-3-yl)amino)propan-2-yl)-carbamate], in [5] (pH 8.0), the “reaction with GSH (adduct formation)” value is “no adduct was observed”.
With `O=C(N[C@@H](Cc1ccccc1)C(=O)N[C@H](/C=C/c1ccccn1)CCc1ccccc1)OCc1ccccc1` [Compound 13, Benzyl ((S)-1-Oxo-3-phenyl-1-(((S,E)-5-phenyl-1-(pyridin-2-yl)pent-1-en-3-yl)amino)propan-2-yl)carbamate], the “T. cruzi axenic culture EC50” value in data set [6] is recorded as “poorly effective”.
Regarding `Cc1cc(=O)oc2cc(NC(=O)[C@H](CCc3ccccc3)NC(=O)[C@H](Cc3ccccc3)NC(=O)OCc3ccccc3)ccc12` [S2, Cbz-Phe-hPhe-AMC] (Cbz-Phe-[hPhe]-{AMC}), in [2], the Km was found to be 0.26 ± 0.06 µM, the kcat was 2.0 ± 0.2 s⁻¹ and the kcat rel is 0.21.
For `Cc1cc(=O)oc2cc(NC(=O)C(Cc3ccncc3)NC(=O)C(Cc3ccccc3)NC(=O)OCc3ccccc3)ccc12` (stereo not drawn) [S5, Cbz-Phe-(4-Pyr)Ala-AMC] (Cbz-Phe-[4Pal]-{AMC}; configuration not given here) the same measures were 3.7 ± 0.5 µM, 7.5 ± 0.5 s⁻¹ and 0.76.
The matching figures for `Cc1cc(=O)oc2cc(NC(=O)[C@H](Cc3ccccc3)NC(=O)[C@H](Cc3ccccc3)NC(=O)OCc3ccccc3)ccc12` [S9, Cbz-Phe-Phe-AMC] (Cbz-Phe-Phe-{AMC}): 0.34 ± 0.06 µM, 0.26 ± 0.01 s⁻¹ and 0.03.
As to `Cc1cc(=O)oc2cc(NC(=O)[C@H](CCCN=C(N)N)NC(=O)[C@H](Cc3ccccc3)NC(=O)OCc3ccccc3)ccc12` [S1, Cbz-Phe-Arg-AMC, reference compound] (Cbz-Phe-Arg-{AMC}), in data set [8], the “Michaelis constant, cathepsin S” value was found to be 60 µM. Further, in data set [2], the Km was determined as 0.89 ± 0.09 µM, the kcat came out at 9.6 ± 0.2 s⁻¹ and the kcat rel worked out at 1.00. In data set [9], the “Michaelis constant, cathepsin L” value worked out at 2.9 µM. Also, the “Michaelis constant, cathepsin B” value in [10] came out at 150 µM.
For `Cc1cc(=O)oc2cc(NC(=O)C(CCc3ccccc3)NC(=O)C(CC(C)C)NC(=O)OCc3ccccc3)ccc12` (stereo not drawn) [S3, Cbz-Leu-hPhe-AMC] (Cbz-Leu-[hPhe]-{AMC}; configuration not given here), in data set [2], the Michaelis-Menten constant (Km) came to 0.8 ± 0.2 µM and the kcat is 3.0 ± 0.2 s⁻¹.
Regarding `Cc1cc(=O)oc2cc(NC(=O)[C@H](CCc3ccccc3)NC(=O)[C@H](Cc3ccncc3)NC(=O)OCc3ccccc3)ccc12` [S8, Cbz-(4-Pyr)Ala-hPhe-AMC] (Cbz-[4Pal]-[hPhe]-{AMC}), in [2], the Michaelis constant (Km) stood at 4.6 ± 0.5 µM; the kcat is 5.3 s⁻¹ and 5.3 ± 0.2 s⁻¹; the kcat rel stood at 0.55.
For the compound `Cc1cc(=O)oc2cc(NC(=O)[C@H](CCCN=C(N)N)NC(=O)[C@H](CC(C)C)NC(=O)OCc3ccccc3)ccc12` [S4, Cbz-Leu-Arg-AMC], in data set [2], the Michaelis-Menten constant (Km) was 2.2 ± 0.3 µM, the kcat turned out to be 8.4 ± 0.4 s⁻¹ and the kcat rel stood at 0.88.
On to `Cc1cc(=O)oc2cc(NC(=O)[C@H](Cc3ccccc3)NC(=O)[C@H](Cc3ccccc3)NC(=O)N3CCN(C)CC3)ccc12` [S11, NMePip-Phe-Phe-AMC], for which, in data set [2], the Km was 14 ± 4 µM, the kcat came to 2.8 ± 0.06 s⁻¹ and the kcat rel is recorded as 0.29.
Take `O=C(N[C@@H](Cc1ccccc1)C(=O)N[C@H](/C=C/c1nccs1)Cc1ccccc1)OCc1ccccc1` [Compound 25, Benzyl ((S)-1-Oxo-3-phenyl-1-(((S,E)-1-phenyl-4-(thiazol-2-yl)-but-3-en-2-yl)amino)propan-2-yl)carbamate]: in data set [5] (pH 8.0), the “reaction with GSH (adduct formation)” value is given as “no adduct was observed”.
Same read-out and setting: the value for `O=C(N[C@@H](Cc1ccccc1)C(=O)N[C@H](/C=C/c1ncccn1)Cc1ccccc1)OCc1ccccc1` [Compound 7, Benzyl ((S)-1-Oxo-3-phenyl-1-(((S,E)-1-phenyl-4-(pyrimidin-2-yl)-but-3-en-2-yl)amino)propan-2-yl)carbamate] was “no adduct was observed”.
Turning to `O=C(N[C@@H](Cc1ccccc1)C(=O)N[C@H](/C=C/c1ccccn1)Cc1ccccc1)OCc1ccccc1` [Compound 11, Benzyl ((S)-1-Oxo-3-phenyl-1-(((S,E)-1-phenyl-4-(pyridin-2-yl)but-3-en-2-yl)amino)propan-2-yl)carbamate], the “T. cruzi axenic culture EC50” value in data set [6] is “poorly effective”. For the same compound, the “reaction with GSH (adduct formation)” value in data set [5] (pH 8.0) is “no adduct was observed”.
`O=C(N[C@@H](Cc1ccccc1)C(=O)NC(CCc1ncccn1)Cc1ccccc1)OCc1ccccc1` (stereo in doubt) [Compound 27, Benzyl ((S)-1-Oxo-3-phenyl-1-(((S)-1-phenyl-4-(pyrimidin-2-yl)-butan-2-yl)amino)propan-2-yl)carbamate] registered a Ki in [7] of 22000 nM.
Regarding `C[n+]1ccsc1/C=C/[C@H](Cc1ccccc1)NC(=O)[C@H](Cc1ccccc1)NC(=O)OCc1ccccc1.[I-]` [Compound 26, 2-((S,E)-3-((S)-2-(((Benzyloxy)carbonyl)amino)-3-phenylpropanamido)-4-phenylbut-1-en-1-yl)-3-methylthiazol-3-ium Iodide], in data set [5] (pH 8.0), the “rate of formation of GSH adduct” value worked out at 15 M⁻¹ s⁻¹ and the “Keq of GSH adduct (apparent equilibrium)” value worked out at 930 M⁻¹.
